Laboratory results reported in patent publication US9902986B2, “Enterobactin conjugates and uses thereof” (Massachusetts Institute of Technology, priority 2013, dated 2018).

Legend:
[1] = test system: P. aeruginosa K648 (pvd-, pch-); format: cell-based, Pseudomonas aeruginosa
Experimental: (§1) General microbiology methods are as described herein or according to processes known in the art. […] Bacterial growth was assayed by measuring OD600 using a BioTek Synergy HT plate reader. Each well condition was prepared in duplicate and three independent replicates of each assay were conducted on different days. The resulting mean OD600 are reported and the error bars are the standard deviation of the mean obtained from the three independent replicates.
(§2) It was next sought to determine whether the enterobactin-cargo conjugates provided growth recovery for Pseudomonas aeruginosa PAO1. This Gram-negative opportunistic human pathogen synthesizes and exports two siderophores, pyoverdine (pvd) and pyochelin (pch), and employs multiple additional mechanisms for iron acquisition.^72,73 P. aeruginosa utilizes enterobactin as a xenosiderophore, and the genes pfeA^74,75 and pirA^76 encode outer membrane enterobactin transporters. Similar to the E. coli experiments, P. aeruginosa strains deficient in siderophore production or utilization were used in growth recovery assays.

[2] = three catecholate groups; cited from earlier work
[3] = test system: E. coli ATCC 33475 (ent-); format: cell-based, Escherichia coli; details: 10 μM
Experimental: as §1
(§3) Three non-pathogenic E. coli strains were employed that are defective in enterobactin synthesis, enterobactin transport, or ferric enterobactin utilization in growth recovery assays. E. coli ATCC 33475 (ent-) cannot biosynthesize enterobactin, but retains the capacity to import and metabolize the siderophore.^71 E. coli H1187 (fepA-) lacks the outer membrane enterobactin receptor. E. coli K-12 JW0576 (fes-) can accumulate ferric enterobactin, but cannot release the iron because it is deficient in the enterobactin esterase Fes. As a result of these defects in iron metabolism, all three strains grow poorly under conditions of iron limitation.^71 The iron chelator 2,2′-dipyridyl (dipyridyl, DP) was used to generate iron-deficient conditions and promote expression of siderophore transport machinery in the growth recovery assays.

[4] = test system: human colon epithelial T84 cells; assay: Cytotoxicity study using MTT; details: 10 μM, 24 h
Experimental: Colon epithelial T84 cell line (purchase from ATCC) were grown in DMEM/F12 medium containing penicillin (100 I.U./mL) and streptomycin (100 μg/mL). The cells were passed and plated in 96-well flat-bottom plates ˜16 h before treatment. Each well contained 90 µL of the cell culture at a density of 10^5 cells/mL. Stock solutions of the tested conjugates (e.g., Ent-Amp) were prepared in sterile filtered 10% DMSO/water, and 10 μL of the each solution was added to each well. The plate was incubated at 37° C. and under 5% CO2 for 24 h and 20 μL of MTT (5 mg/mL in sterile PBS) was added to each well. The plate was incubated at 37° C. for another 4 h, and the supernatant was removed from each well. DMSO (100 μL) was added to the wells to afford a purple solution, and the absorbance at 550 nm was recorded by using a plate reader. Blank readings were generated by wells that only contain the growth medium but no cells. The assay was repeated in three independent trials, and the resulting mean and standard errors are reported. […] Ent-Amp, Ent, and Amp were incubated with human colon epithelial T84 cells for 24 h.
In another exemplary experiment, the human colon epithelial T84 cell line was purchased from ATCC and cultured in 1:1 DMEM/F12 medium with 10% fetal bovine serum, 1% penicillin, and streptomycin (v/v, ATCC). The cells were grown to approximately 95% confluency and treated with 3 mL of trypsin-EDTA (Corning). A 12-mL portion of fresh medium was added to the detached cells, and the T84 cell suspension was centrifuged (600 rpm×5 min, 37° C.). The supernatant was discarded, and the cell pellet was resuspended in 6 mL of the fresh culture media. The concentration of cells was quantified by using a manual hemocytometer (VWR International) and adjusted to 1×10^5 cells/mL. A 90-μL aliquot of T84 cells were then added to 96-well plates and incubated at 37° C. and 5% CO2 for 24 h. […] DMSO (100 μL) was added to each well and the absorbance at 550 nm was recorded by using a plate reader. Blank readings were recorded on wells that only contained the medium. […]

[5] = test system: P. aeruginosa K407 (pvd-, pFr-); assay: Growth recovery assay, P. aeruginosa (pfeA-); format: cell-based, Pseudomonas aeruginosa; details: 600 μM DP; for growth inhibition of P. aeruginosa (pfeA-): micromolar concentrations
Experimental: as §1, §2

[6] = test system: E. coli K-12 JW0576 (fes-); assay: Growth recovery assay, E. coli (fes-); format: cell-based, Escherichia coli; details: 200 μM DP
Experimental: as §1, §3

E. coli H1187 (fepA-) = assay: Growth recovery assay, E. coli (fepA-); format: cell-based, Escherichia coli; details: 200 μM DP
Experimental: as §1, §3

Lipocalin-2 (lcn2) = Lipocalin-2 (lcn2) (Homo sapiens, UniProt P80188); details: cited from earlier work
FepA = FepA (Escherichia coli, UniProt P05825); details: E. coli outer membrane transporter; cited from earlier work
FepA, sequence (P05825 23-746): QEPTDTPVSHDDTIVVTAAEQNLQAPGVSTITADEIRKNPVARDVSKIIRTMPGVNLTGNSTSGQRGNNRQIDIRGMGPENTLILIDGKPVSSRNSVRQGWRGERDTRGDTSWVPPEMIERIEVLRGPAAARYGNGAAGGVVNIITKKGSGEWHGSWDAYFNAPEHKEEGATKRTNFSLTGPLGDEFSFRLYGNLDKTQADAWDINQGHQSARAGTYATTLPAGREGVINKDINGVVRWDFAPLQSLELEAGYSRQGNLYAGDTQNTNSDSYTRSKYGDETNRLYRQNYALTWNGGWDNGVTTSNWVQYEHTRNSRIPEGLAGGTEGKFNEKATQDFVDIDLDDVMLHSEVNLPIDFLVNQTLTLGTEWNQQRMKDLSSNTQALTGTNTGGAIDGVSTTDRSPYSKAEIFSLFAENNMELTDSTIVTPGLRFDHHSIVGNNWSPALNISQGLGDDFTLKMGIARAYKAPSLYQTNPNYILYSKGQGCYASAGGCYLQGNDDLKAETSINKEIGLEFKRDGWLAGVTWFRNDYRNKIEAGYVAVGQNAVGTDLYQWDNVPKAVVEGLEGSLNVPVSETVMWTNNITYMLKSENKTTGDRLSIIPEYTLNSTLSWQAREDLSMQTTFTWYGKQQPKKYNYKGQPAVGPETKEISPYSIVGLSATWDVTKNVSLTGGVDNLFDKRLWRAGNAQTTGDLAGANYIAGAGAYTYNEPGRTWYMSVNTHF

Lipocalin-2 (lcn2), sequence (P80188 21-198): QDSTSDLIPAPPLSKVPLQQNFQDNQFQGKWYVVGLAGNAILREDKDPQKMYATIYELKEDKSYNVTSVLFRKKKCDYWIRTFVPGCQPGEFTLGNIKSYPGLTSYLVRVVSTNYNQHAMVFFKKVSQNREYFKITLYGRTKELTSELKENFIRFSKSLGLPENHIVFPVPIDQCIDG

Row | Compound | growth enhancement of P. aeruginosa (pfeA-) [5] | growth inhibition of P. aeruginosa (pfeA-) [5] | growth restoration of E. coli (fes-) [6] | growth restoration of E. coli (fepA-) (E. coli H1187 (fepA-)) | further results
1 | O=C(N[C@H]1COC(=O)[C@@H](NC(=O)c2cccc(O)c2O)COC(=O)[C@@H](NC(=O)c2cccc(O)c2O)COC1=O)c1cccc(O)c1O [L-Ent, Enterobactin] | no growth enhancement | growth inhibition at micromolar concentrations |  |  | OD600 of P. aeruginosa (pvd-, pch-) culture ([1]; low-micromolar concentrations, 50% MHB, 600 μM DP, 30° C., t=19 h): ~0.40; Ka for Fe(III) coordination [2]: ~10^49 M^−1; OD600 of E. coli (ent-) culture ([3]; 50% MHB, 200 μM DP, 30° C., t=19 h): ~0.2; decrease of percent survival of T84 cells [4]: approximately 30%
2 | O=C(NCCOCCOCCOCCNC(=O)C1CCCCC1)c1cc(O)c(O)c(C(=O)N[C@H]2COC(=O)[C@@H](NC(=O)c3cccc(O)c3O)COC(=O)[C@@H](NC(=O)c3cccc(O)c3O)COC2=O)c1 [conjugate 30, N^3-((3S,7S,11S)-7,11-Bis(2,3-dihydroxybenzamido)-2,6,10-trioxo-1,5,9-trioxacyclododecan-3-yl)-N^1-(1-cyclohexyl-1-oxo-5,8,11-trioxa-2-azatridecan-13-yl)-4,5-dihydroxyisophthalamide] | no growth enhancement | growth inhibition at micromolar concentrations | No growth restoration | No growth restoration | 
3 | Vancomycin-PEG-Ent [conjugate 42] |  |  |  |  | effect on growth of P. aeruginosa (pvd-, pch-) ([1]; ±DP): growth inhibitory effect; effect on E. coli growth ([3]; +DP): inhibited the growth of E. coli
4 | CC(C)(C)OC(=O)NCCOCCOCCOCCNC(=O)c1cc(O)c(O)c(C(=O)N[C@H]2COC(=O)[C@@H](NC(=O)c3cccc(O)c3O)COC(=O)[C@@H](NC(=O)c3cccc(O)c3O)COC2=O)c1 [conjugate 29, Tert-butyl(1-(3-(((3S,7S,11S)-7,11-bis(2,3-dihydroxybenzamido)-2,6,10-trioxo-1,5,9-trioxacyclododecan-3-yl)carbamoyl)-4,5-dihydroxyphenyl)-1-oxo-5,8,11-trioxa-2-azatridecan-13-yl)carbamate] |  |  | No growth restoration | No growth restoration | 
5 | O=C(N[C@H]1COC(=O)[C@@H](NC(=O)c2cccc([O-])c2[O-])COC(=O)[C@@H](NC(=O)c2cccc([O-])c2[O-])COC1=O)c1cccc([O-])c1[O-].[Fe+3] [ferric enterobactin] |  |  |  |  | affinity of lcn2 for ferric enterobactin (Lipocalin-2 (lcn2)): low-nanomolar affinity; affinity of FepA for ferric enterobactin (FepA): sub-nanomolar affinity
